Assay results from ChEMBL document CHEMBL1147043, “Comparative metabolism of radiolabeled muraglitazar in animals and humans by quantitative and qualitative metabolite profiling” (Drug Metab Dispos, 2007).

Assays:
[1] = Biodistribution in orally dosed human feces assessed as 17-hydroxy muraglitazar level by LC/MS analysis; format: ADME, organism-based; settings: in vivo, po
[2] = Biodistribution in orally dosed Beagle dog feces assessed as muraglitazar 12-carboxylic acid level by LC/MS analysis; format: ADME, organism-based, Canis lupus familiaris; settings: in vivo, po
[3] = system: Hepatocyte; assay: Metabolic stability in Sprague-Dawley rat hepatocytes assessed as 8,12-dihydroxy muraglitazar level by LC/MS analysis relative to control; format: ADME, cell-based
[4] = system: Hepatocyte; assay: Metabolic stability in Sprague-Dawley rat hepatocytes assessed as di-oxygenated muraglitazar level by LC/MS analysis relative to control; format: ADME, cell-based
[5] = Metabolic stability in cynomolgus monkey hepatocytes assessed as O-demethyl muraglitazar glucuronide level by LC/MS analysis relative to control; format: ADME, cell-based, Macaca fascicularis, Hepatocyte
[6] = system: Hepatocyte; assay: Metabolic stability in human hepatocytes assessed as 12-hydroxy-O-demethyl muraglitazar level by LC/MS analysis relative to control; format: ADME, cell-based
[7] = system: Hepatocyte; assay: Metabolic stability in human hepatocytes assessed as 12-hydroxy muraglitazar level by LC/MS analysis relative to control; format: ADME, cell-based
[8] = Biodistribution in orally dosed cynomolgus monkey feces assessed as acetylimide derivative of muraglitazar level by LC/MS analysis; format: ADME, organism-based, Macaca fascicularis; settings: in vivo, po
[9] = Biodistribution in orally dosed human feces assessed as acetylimide derivative of muraglitazar level by LC/MS analysis; format: ADME, organism-based; settings: in vivo, po
[10] = Metabolic stability in CD1 mouse hepatocytes assessed as 17-hydroxy muraglitazar level by LC/MS analysis relative to control; format: ADME, cell-based, Hepatocyte
[11] = Metabolic stability in CD1 mouse hepatocytes assessed as muraglitazar glucuronide level by LC/MS analysis relative to control; format: ADME, cell-based, Hepatocyte
[12] = Metabolic stability in CD1 mouse hepatocytes assessed as O-demethyl muraglitazar level by LC/MS analysis relative to control; format: ADME, cell-based, Hepatocyte
[13] = Metabolic stability in CD1 mouse hepatocytes assessed as hydroxyl-O-demethyl muraglitazar glucuronide level by LC/MS analysis relative to control; format: ADME, cell-based, Hepatocyte
[14] = system: Hepatocyte; assay: Metabolic stability in Sprague-Dawley rat hepatocytes assessed as O-Dealkyl muraglitazar level by LC/MS analysis relative to control; format: ADME, cell-based
[15] = system: Hepatocyte; assay: Metabolic stability in Sprague-Dawley rat hepatocytes assessed as O-demethyl muraglitazar level by LC/MS analysis relative to control; format: ADME, cell-based
[16] = Biodistribution in orally dosed human feces assessed as 9-hydroxy-O-demethyl muraglitazar level by LC/MS analysis; format: ADME, organism-based; settings: in vivo, po
[17] = Biodistribution in orally dosed cynomolgus monkey feces assessed as 12,17-dihydroxy muraglitazar level by LC/MS analysis; format: ADME, organism-based, Macaca fascicularis; settings: in vivo, po
[18] = Biodistribution in orally dosed human feces assessed as 12,17-dihydroxy muraglitazar level by LC/MS analysis; format: ADME, organism-based; settings: in vivo, po
[19] = system: Rattus norvegicus; assay: Biodistribution in orally dosed Sprague-Dawley rat feces assessed as imide derivative of muraglitazar level by LC/MS analysis; format: ADME, organism-based; settings: in vivo, po
[20] = Biodistribution in orally dosed human feces assessed as imide derivative of muraglitazar level by LC/MS analysis; format: ADME, organism-based; settings: in vivo, po
[21] = Drug concentration in human urine assessed as recovery of radioactive dose at 20 mg, po after 240 hrs; format: ADME, organism-based; settings: in vivo
[22] = Drug concentration in human feces assessed as recovery of radioactive dose at 20 mg, po after 240 hrs; format: ADME, organism-based; settings: in vivo
[23] = system: Hepatocyte; assay: Metabolic stability in Sprague-Dawley rat hepatocytes assessed as radioactivity recovaries at 25.6 ug/mL after 4 hrs; format: ADME, cell-based
[24] = system: Hepatocyte; assay: Metabolic stability in human hepatocytes assessed as radioactivity recovaries at 25.6 ug/mL after 4 hrs; format: ADME, cell-based
[25] = Drug concentration in human urine at 10 mg/kg, po after 8 hrs; format: ADME, organism-based; set-up: dose 10 mg/kg, route oral; settings: read-out: Drug uptake
[26] = Drug concentration in bile duct-cannulated Sprague-Dawley rat bile at 10 mg/kg, po after 24 hrs; format: ADME, organism-based; set-up: dose 10 mg/kg, route oral; settings: in vivo
[27] = Fecal excretion rate in orally dosed Beagle dog within 24 hrs; format: ADME, organism-based, Canis lupus familiaris; settings: faeces, po, read-out: Activity
[28] = Fecal excretion of compound in orally dosed cynomolgus monkey within 48 hrs; format: ADME, organism-based, Macaca fascicularis; settings: faeces, po, read-out: Activity
[29] = system: Plasma; assay: Biodistribution in orally dosed cynomolgus monkey plasma assessed as muraglitazar glucuronide level after 4 hrs by LC/MS analysis; format: ADME, organism-based, Macaca fascicularis; settings: in vivo, po
[30] = system: Plasma; assay: Biodistribution in orally dosed Sprague-Dawley rat plasma assessed as O-demethyl muraglitazar level after 12 hrs by LC/MS analysis; format: ADME, organism-based; settings: in vivo, po
[31] = system: Plasma; assay: Biodistribution in orally dosed human plasma assessed as O-demethyl muraglitazar level after 4 hrs by LC/MS analysis; format: ADME, organism-based; settings: in vivo, po
[32] = Biodistribution in orally dosed human feces assessed as 8,12-dihydroxy muraglitazar level by LC/MS analysis; format: ADME, organism-based; settings: in vivo, po
[33] = system: Rattus norvegicus; assay: Biodistribution in orally dosed Sprague-Dawley rat feces assessed as 12-hydroxy-O-demethyl muraglitazar level by LC/MS analysis; format: ADME, organism-based; settings: in vivo, po
[34] = Drug concentration in bile duct-cannulated Sprague-Dawley rat urine assessed as recovery of radioactive dose at 11 mg/kg, po after 24 hrs; format: ADME, organism-based; set-up: dose 11 mg/kg, route oral; settings: in vivo
[35] = Drug concentration in bile duct-cannulated CD1 mouse urine assessed as recovery of radioactive dose at 1 mg/kg, po after 24 hrs; format: ADME, organism-based; set-up: dose 1 mg/kg, route oral; settings: in vivo
[36] = Drug concentration in bile duct-cannulated CD1 mouse feces assessed as recovery of radioactive dose at 40 mg/kg, po after 24 hrs; format: ADME, organism-based; set-up: dose 40 mg/kg, route oral; settings: in vivo
[37] = Drug concentration in Beagle dog urine assessed as recovery of radioactive dose at 1.9 mg/kg, po after 168 hrs; format: ADME, organism-based, Canis lupus familiaris; set-up: dose 1.9 mg/kg, route oral; settings: in vivo
[38] = system: Plasma; assay: Biodistribution in orally dosed human plasma assessed as 12,17-dihydroxy muraglitazar level after 4 hrs by LC/MS analysis; format: ADME, organism-based; settings: in vivo, po
[39] = system: Plasma; assay: Biodistribution in orally dosed Sprague-Dawley rat plasma assessed as […] muraglitazar level after 12 hrs by LC/MS analysis; format: ADME, organism-based; settings: in vivo, po
[40] = system: Plasma; assay: Biodistribution in orally dosed Beagle dog plasma assessed as 12-dihydroxy muraglitazar level after 12 hrs by LC/MS analysis; format: ADME, organism-based, Canis lupus familiaris; settings: in vivo, po
[41] = system: Plasma; assay: Biodistribution in orally dosed human plasma assessed as 12-dihydroxy muraglitazar level after 4 hrs by LC/MS analysis; format: ADME, organism-based; settings: in vivo, po
[42] = system: Rattus norvegicus; assay: Biodistribution in orally dosed Sprague-Dawley rat urine assessed as O-dealkyl muraglitazar level by LC/MS analysis; format: ADME, organism-based; settings: in vivo, po
[43] = system: Plasma; assay: Biodistribution in orally dosed Beagle dog plasma assessed as O-Dealkyl muraglitazar level after 12 hrs by LC/MS analysis; format: ADME, organism-based, Canis lupus familiaris; settings: in vivo, po
[44] = system: Plasma; assay: Biodistribution in orally dosed cynomolgus monkey plasma assessed as 12,17-dihydroxy muraglitazar level after 12 hrs by LC/MS analysis; format: ADME, organism-based, Macaca fascicularis; settings: in vivo, po
[45] = Biodistribution in orally dosed cynomolgus monkey urine assessed as 17-hydroxy-O-demethyl muraglitazar level by LC/MS analysis; format: ADME, organism-based, Macaca fascicularis; settings: in vivo, po
[46] = Tmax in Beagle dog at 2 mg/kg, po after 4 hrs; format: ADME, organism-based, Canis lupus familiaris; set-up: dose 2 mg/kg, route oral; settings: in vivo
[47] = system: Cynomolgus monkey; assay: Cmax in cynomolgus monkey at 1.9 mg/kg, po after 24 hrs; format: ADME, organism-based, Macaca fascicularis; set-up: dose 1.9 mg/kg, route oral; settings: in vivo
[48] = system: Homo sapiens; assay: Cmax in human at 10 mg, po after 72 hrs; format: ADME, organism-based; set-up: dose 10 mg, route oral; settings: in vivo
[49] = Half life in human at 10 mg, po after 72 hrs; format: ADME, organism-based; settings: in vivo
[50] = Bile excretion of compound in bile duct-cannulated orally dosed Sprague-Dawley rat within 24 hrs; format: ADME, organism-based; settings: po, read-out: Activity
[51] = Biodistribution in orally dosed human urine assessed as O-dealkyl muraglitazar level by LC/MS analysis; format: ADME, organism-based; settings: in vivo, po
[52] = Biodistribution in orally dosed cynomolgus monkey feces assessed as 8-hydroxy-O-demethyl muraglitazar level by LC/MS analysis; format: ADME, organism-based, Macaca fascicularis; settings: in vivo, po
[53] = Biodistribution in orally dosed human feces assessed as 8-hydroxy-O-demethyl muraglitazar level by LC/MS analysis; format: ADME, organism-based; settings: in vivo, po

Compound `COc1ccc(OC(=O)N(CC(=O)O)Cc2ccc(OCCc3nc(-c4ccccc4)oc3C)cc2)cc1` [MURAGLITAZAR] has a Drug uptake [1] of 5.92%, a Drug uptake [2] of 0.1% and a Drug uptake [3] of under 0.2%. For the same compound, the Drug uptake [4] was 7.5%, the Drug uptake [5] was under 0.2% and the Drug uptake [6] was under 0.2%. It also gave a Drug uptake [7] of 1.9%, a Drug uptake [8] of 0.16% and a Drug uptake [9] of 3.21%. For the same compound, the Drug uptake [10] was 5.4%, the Drug uptake [11] was 5.2% and the Drug uptake [12] was 1.2%. It also gave a Drug uptake [13] of under 0.2%, a Drug uptake [14] of 12% and a Drug uptake [15] of 2.2%. It also gave a Drug uptake [16] of 2.21%, a Drug uptake [17] of 6.43% and a Drug uptake [18] of 0.56%. It also gave a Drug uptake [19] of 2.63%, a Drug uptake [20] of 2.46% and a Drug uptake [21] of 3.7%. The Drug uptake [22] was 50.7%, the Stability [23] was 96.5% and the Stability [24] was 98.7%. For the same compound, the dose excreted at 8 h [25] was 1.3%, the Drug uptake [26] was 0.289 mgequiv/ml and the dose excreted at 24 h [27] was 85%. It also gave a dose excreted at 48 h [28] of 30%, a Drug uptake [29] of 0.2% and a Drug uptake [30] of 3.5%. The Drug uptake [31] was 0.5%, the Drug uptake [32] was 2.83% and the Drug uptake [33] was 2.63%. The Drug uptake [34] was 0.98%, the Drug uptake [35] was 8.3% and the Drug uptake [36] was 12%. For the same compound, the Drug uptake [37] was 0.5%, the Drug uptake [38] was under 0.05% and the Drug uptake [39] was under 0.05%. For the same compound, the Drug uptake [40] was 9%, the Drug uptake [41] was 1% and the Drug uptake [42] was 0.22%. It also gave a Drug uptake [43] of 9%, a Drug uptake [44] of 1% and a Drug uptake [45] of 0.01%. The Tmax [46] was 1 h, the Cmax [47] was 7.1 ugequiv/ml and the Cmax [48] was 1.4 ugequiv/ml. It also gave a half-life [49] of 19.8 h, a dose excreted at 24 h [50] of 65% and a Drug uptake [51] of 0.06%. For the same compound, the Drug uptake [52] was 1.29% and the Drug uptake [53] was 0.56%.
